Experimental data from US4824829A, “Non-dusting antibiotic, anticoccidial premix compositions and a process for their manufacture” (American Cyanamid Company, priority 1985, dated 1989).

Tests used:
in vivo = settings: rabbit, topical or ocular
[1] = Relative Dermal Toxicities (LD50 Rabbit Dermal Toxicity); settings: in vivo, topical or ocular, Female, maduramicin
[2] = Segregation study (drug accumulation in medicated poultry feed after two hours on drum roller); format: physicochemical
Procedure: The segregation test is performed in a commercially-blended poultry feed, supplemented with 1000 ppm (0.1%) of drug, using the premix prepared in Example 1 in one blend and pure drug with an equivalent amount of corncob grits in the other as indicated in Table IV below.
These materials are placed into new one-gallon Nalgene dense polyethylene jars and placed on a drum roller for two hours. At the end of the mixing time, the jars are sampled in the horizontal position to remove the material which has accumulated and packed in the neck (#1), then the jars are emptied without shaking or tapping, and a cross-sectional sample taken from the bulk (#2); finally, the empty jar is extracted and assayed for residual drug (#3).

[3] = emptied jar residue, feed with 1000 ppm drug
[4] = neck of jar, feed with 1000 ppm drug

Row | Structure (SMILES) | LD50 (in vivo) [mg/kg] | LD50 [1] [mg/kg] | #2 Bulk sample, Assay ([2]; cross-sectional bulk sample, feed with 1000 ppm drug) [ppm] | #3 Bottle residue, Assay [2, 3] [ppm] | #3 Bottle residue, Total Drug [2, 3] [mg] | #3 Bottle residue, Weight [2, 3] [g] | separation of drug from the feed ([2]; mixed dry with feed) | tendency to accumulate in the spots of least movement ([2]; mixed dry with feed, neck of the bottle, vs premix) | actual amount of drug segregating, pure drug vs premix (times larger) ([2]; neck accumulation, pure drug relative to premix) | #1 Neck accumulation, Assay [2, 4] [ppm] | #1 Neck accumulation, Total Drug [2, 4] [mg] | #1 Neck accumulation, Weight [2, 4] [g]
1 | CO[C@@H]1[C@@H](OC)[C@H](C)[C@@](O)(CC(=O)O)O[C@H]1[C@H](C)[C@H]1O[C@@]2(CC[C@@](C)([C@H]3CC[C@@](C)([C@@H]4O[C@@H]([C@H]5O[C@](C)(O)[C@H](C)C[C@@H]5C)C[C@@H]4O[C@@H]4C[C@H](OC)[C@@H](OC)[C@H](C)O4)O3)O2)C[C@H](O)[C@H]1C [Composition 1, maduramicin] | 8.9 | 3.7 |  |  |  |  |  |  |  |  |  | 
2 | COC1CC(OC2CC(C3OC(C)(O)C(C)CC3C)OC2C2(C)CCC(C3(C)CCC4(CC(O)C(C)C(C(C)C5OC(O)(CC(=O)O)C(C)C(OC)C5OC)O4)O3)O2)OC(C)C1OC (stereo not drawn) [Pure Drug] |  |  | 1115 | 2300 | 1.85 | 0.80 | separates freely from the feed | greater tendency to accumulate in the spots of least movement | more than seven | 1745 | 14.8 | 8.5
